Source: patent US7538241B2, “Hsp90 family protein inhibitors” (Kyowa Hakko Kogyo Co., Ltd., priority 2003, dated 2009)

Experiments:
[1] = test system: human mammary cancer-derived KPL-4 cells; assay: Cell growth inhibition test with KPL-4 cells (WST-1); assay type: cell-based; conditions: KPL4, 72 hours, read-out: 50% growth inhibition concentration (GI50)
Protocol: In a 96-well plate (Nunc), human mammary cancer-derived KPL-4 cells were sown in an amount of 2000 cells/well, and pre-incubated in 10% fetal calf serum (FCS)-containing Dulbecco Modified Eagle Medium (DMEM) (incubation medium) in a 5% carbon dioxide incubator at 37° C. for 24 hours. A dimethylsulfoxide (DMSO) solution of a test compound controlled at 10 mmol/L was stepwise diluted with the incubation medium, and added to each well in a total amount of 100 μL/well, and incubated in the 5% carbon dioxide incubator at 37° C. for 72 hours. After the incubation, WST-1 {4-[3-(4-Iodophenyl)-2-(4-nitrophenyl)-2H-5-tetrazolio]-1,3-benzene disulfonate}-labeled mixture (Rosh Diagnostic) diluted 2-fold with the incubation medium was added thereto in an amount of 20 μL/well, and incubated in the 5% carbon dioxide incubator at 37° C. for 1 hour. Using a microplate spectrophotometer (Biorad's Model 550), the absorbance at 450 nm and 655 nm of each well was measured. The cell growth inhibition activity of the test compound was indicated by the 50% growth inhibition concentration (GI50) thereof. A method of calculating GI50 is described. The absorbance at 655 nm of each well was subtracted from the absorbance at 450 nm thereof to give a value (absorbance difference). The absorbance difference obtained with the cells without being treated with the test compound was taken as 100%, and this was compared with the absorbance difference obtained with the cells treated with the test compound to give the concentration of the compound for 50% cell growth inhibition, and this is referred to as GI50.

[2] = test system: human chronic myelocytic leukemia-derived K562 cells; assay: Cell growth inhibition test with K562 cells (WST-1); assay type: cell-based; conditions: 72 hours, read-out: 50% growth inhibition concentration (GI50)
Protocol: In a 96-well plate (Nunc), human chronic myelocytic leukemia-derived K562 cells were sown in an amount of 1500 cells/well, and pre-incubated in 10% FCS-containing Rosewell Park Memorial Institute's Medium (RPMI) 1640 (Nissui) (incubation medium) in a 5% carbon dioxide incubator at 37° C. for 5 hours. Next, a DMSO solution of a test compound controlled at 10 mmol/L was stepwise diluted with the incubation medium, and added to each well in a total amount of 100 μL/well, and further incubated in the 5% carbon dioxide incubator at 37° C. for 72 hours. After the incubation, WST-1-labeled mixture (Rosh Diagnostic) diluted 2-fold with the incubation medium was added thereto in an amount of 20 μL/well, and incubated in the 5% carbon dioxide incubator at 37° C. for 2 hours. Using a microplate spectrophotometer (Biorad's Model 550), the absorbance at 450 nm and 655 nm of each well was measured. The cell growth inhibition activity of the test compound was indicated by the 50% growth inhibition concentration (GI50) thereof, like in Test Example 2.

Row | SMILES | GI50 [1] | GI50 [2]
1 | CCc1c(O)cc(O)c(-c2ccccc2)c1CCCOCC(=O)N(C)C [Compound 160, 2-[3-(2-Ethyl-3,5-dihydroxy-6-phenylphenyl)propoxy]-N,N-dimethylacetamide] | ≤ 50 µM | 
2 | CCc1c(O)cc(O)c(-c2ccccc2)c1CCCOCC(=O)NCCOC [Compound 168, 2-[3-(2-Ethyl-3,5-dihydroxy-6-phenylphenyl)propoxy]-N-(2-methoxyethyl)acetamide] | ≤ 50 µM | 
3 | CCc1c(O)cc(O)c(-c2ccccc2)c1CCC(O)CC(O)CO (stereo not shown) [Compound 169, 6-Ethyl-4-phenyl-5-(3,5,6-trihydroxyhexyl)benzene-1,3-diol] | ≤ 50 µM | 
4 | CCc1c(O)cc(O)c(-c2ccccc2)c1CCC(O)CC(O)CO (stereo not shown) [Compound 170, 6-Ethyl-4-phenyl-5-(3,5,6-trihydroxyhexyl)benzene-1,3-diol] |  | ≤ 50 µM
5 | CCc1c(O)cc(O)c(-c2ccccc2)c1CCOCCCOC [Compound 176, 6-Ethyl-5-[2-(3-methoxypropoxy)ethyl]-4-phenylbenzene-1,3-diol] | ≤ 50 µM | 
6 | CCc1c(O)cc(O)c(-c2ccccc2)c1CC(O)CC(O)CO (stereo not shown) [Compound 177, 6-Ethyl-4-phenyl-5-(2,4,5-trihydroxypentyl)benzene-1,3-diol] | ≤ 50 µM | 
7 | CCc1c(O)cc(O)c(-c2ccccc2)c1CCOCC(O)COCCO (stereo not shown) [Compound 179, 6-Ethyl-5-{2-[2-hydroxy-3-(2-hydroxyethoxy)propoxy]ethyl}-4-phenylbenzene-1,3-diol] | ≤ 50 µM | 
8 | CCc1c(O)cc(O)c(-c2ccccc2)c1CC(O)C(O)CO (stereo not shown) [Compound 180, 6-Ethyl-4-phenyl-5-(2,3,4-trihydroxybutyl)benzene-1,3-diol] | ≤ 50 µM | 
9 | CCc1c(O)cc(O)c(-c2ccccc2)c1CCC(O)C(O)CO (stereo not shown) [Compound 181, 6-Ethyl-4-phenyl-5-(3,4,5-trihydroxypentyl)benzene-1,3-diol] | ≤ 50 µM | 
10 | CCc1c(O)cc(O)c(-c2ccccc2)c1CCOC1OC(CO)C(O)C(O)C1O (stereo not shown) [Compound 183, 6-Ethyl-4-phenyl-5-{2-[3,4,5-trihydroxy-6-(hydroxymethyl)tetrahydropyran-2-yloxy]ethyl}benzene-1,3-diol] | ≤ 50 µM | 
11 | CCc1c(O)cc(O)c(-c2ccccc2)c1CCC(O)C(CO)CO (stereo not shown) [Compound 185, 6-Ethyl-5-[3,5-dihydroxy-4-(hydroxymethyl)pentyl]-4-phenylbenzene-1,3-diol] | ≤ 50 µM | 
12 | CCc1c(O)cc(O)c(-c2cccc(OCc3csc(C)n3)c2)c1CCOCC(O)CO (stereo not shown) [Compound 193, 5-[2-(2,3-Dihydroxypropoxy)ethyl]-6-ethyl-4-[3-(2-methyl-1,3-thiazol-4-ylmethyloxy)phenyl]benzene-1,3-diol] | ≤ 50 µM | 
13 | CCc1c(O)cc(O)c(-c2cccc(OCCO)c2)c1CCOCC(O)CO (stereo not shown) [Compound 194, 5-[2-(2,3-Dihydroxypropoxy)ethyl]-6-ethyl-4-[3-(2-hydroxyethoxy)phenyl]benzene-1,3-diol] | ≤ 50 µM | 
14 | CCc1c(O)cc(O)c(-c2cccc(OCCN3CCOCC3)c2)c1CCOCC(O)CO (stereo not shown) [Compound 195, 5-[2-(2,3-Dihydroxypropoxy)ethyl]-6-ethyl-4-[3-(2-morpholinoethoxy)phenyl]benzene-1,3-diol] |  | ≤ 50 µM
15 | CCOC(=O)CCc1ccc(-c2c(O)cc(O)cc2COCc2ccccc2)o1 [Compound 236, Ethyl 3-{5-[6-(benzyloxymethyl)-2,4-dihydroxyphenyl]furan-2-yl}propanoate] | ≤ 50 µM | 
16 | COC(=O)CCc1ccc(-c2c(O)cc(O)cc2C(OC)c2ccccc2)o1 (stereo not shown) [Compound 237, Methyl 3-{5-[2,4-dihydroxy-6-(1-methoxy-1-phenylmethyl)phenyl]furan-2-yl}propanoate] | ≤ 50 µM | 
17 | CCN(CC)C(=O)Cc1c(Br)c(O)cc(O)c1-c1ccco1 [Compound 241, 2-[2-Bromo-6-(furan-2-yl)-3,5-dihydroxyphenyl]-N,N-diethylacetamide] | ≤ 50 µM | 
18 | COCCc1c(Br)c(O)cc(O)c1-c1ccco1 [Compound 243, 6-Bromo-4-(furan-2-yl)-5-(2-methoxyethyl)benzene-1,3-diol] | ≤ 50 µM | 
19 | CCc1c(O)cc(O)c(-c2ccco2)c1CC(=O)N(C)CCOC [Compound 257, 2-[2-Ethyl-6-(furan-2-yl)-3,5-dihydroxyphenyl]-N-(2-methoxyethyl)-N-methylacetamide] | ≤ 50 µM | 
20 | COC(=O)CCc1ccc(-c2c(O)cc(O)cc2CC(=O)OC)o1 [Compound 260, Methyl 3-{5-[2,4-dihydroxy-6-(methoxycarbonylmethyl)phenyl]furan-2-yl}propanoate] | ≤ 50 µM | 
21 | COC(=O)CCc1ccc(-c2c(O)cc(O)c(Br)c2CC(=O)OC)o1 [Compound 267, Methyl 3-{5-[5-bromo-2,4-dihydroxy-6-(methoxycarbonylmethyl)phenyl]furan-2-yl}propanoate] | ≤ 50 µM | 

Second part, the compound after the results:

Row | GI50 [1] | GI50 [2] | SMILES
22 | ≤ 50 µM |  | CCc1c(O)cc(O)c(-c2ccccc2)c1CCOCC(N)=O [Compound 155, 2-[2-(2-Ethyl-3,5-dihydroxy-6-phenylphenyl)ethoxy]acetamide]
23 | ≤ 50 µM |  | CCc1c(O)cc(O)c(-c2ccccc2)c1CCOCC(=O)N(C)C [Compound 157, 2-[2-(2-Ethyl-3,5-dihydroxy-6-phenylphenyl)ethoxy]-N,N-dimethylacetamide]
24 | ≤ 50 µM |  | CCc1c(O)cc(O)c(-c2ccccc2)c1CCCOCC(N)=O [Compound 158, 2-[3-(2-Ethyl-3,5-dihydroxy-6-phenylphenyl)propoxy]acetamide]
25 | ≤ 50 µM |  | CCc1c(O)cc(O)c(-c2ccccc2)c1CC(O)CO (stereo not shown) [Compound 182, 6-Ethyl-5-(2,3-dihydroxypropyl)-4-phenylbenzene-1,3-diol]
26 | ≤ 50 µM |  | CCc1c(O)cc(O)c(-c2ccccc2)c1CCOCc1cccnc1 [Compound 188, 6-Ethyl-4-phenyl-5-[2-(pyridin-3-ylmethoxy)ethyl]benzene-1,3-diol]
27 | ≤ 50 µM |  | CCc1c(O)cc(O)c(-c2cccc(OCc3ccccn3)c2)c1CCOCC(O)CO (stereo not shown) [Compound 190, 5-[2-(2,3-Dihydroxypropoxy)ethyl]-6-ethyl-4-[3-(pyridin-2-ylmethyloxy)phenyl]benzene-1,3-diol]
28 | ≤ 50 µM |  | CCc1c(O)cc(O)c(-c2cccc(OCc3cccnc3)c2)c1CCOCC(O)CO (stereo not shown) [Compound 191, 5-[2-(2,3-Dihydroxypropoxy)ethyl]-6-ethyl-4-[3-(pyridin-3-ylmethyloxy)phenyl]benzene-1,3-diol]
29 | ≤ 50 µM |  | CCc1c(O)cc(O)c(-c2cccc(OCc3ccncc3)c2)c1CCOCC(O)CO (stereo not shown) [Compound 192, 5-[2-(2,3-Dihydroxypropoxy)ethyl]-6-ethyl-4-[3-(pyridin-4-ylmethyloxy)phenyl]benzene-1,3-diol]
30 | ≤ 50 µM |  | COc1cc(NC(=O)Cc2c(Br)c(O)cc(O)c2-c2ccco2)cc(OC)c1 [Compound 242, 2-[2-Bromo-6-(furan-2-yl)-3,5-dihydroxyphenyl]-N-(3,5-dimethoxyphenyl)acetamide]
31 | ≤ 50 µM |  | CCc1c(O)cc(O)c(-c2ccco2)c1CCOC [Compound 244, 6-Ethyl-4-(furan-2-yl)-5-(2-methoxyethyl)benzene-1,3-diol]
32 | ≤ 50 µM |  | COC(=O)Cc1cc(O)cc(O)c1-c1ccc2c(c1)OCO2 [Compound 273, Methyl 2-(1,3-benzodioxolan-5-yl)-3,5-dihydroxyphenylacetate]
33 | ≤ 50 µM |  | CCc1cc(-c2n[nH]c3ccc([N+](=O)[O-])cc23)c(O)cc1O [Compound 277, 6-Ethyl-4-(5-nitro-1H-indazol-3-yl)benzene-1,3-diol]
34 | ≤ 50 µM |  | CCc1cc(-c2nc3ccccc3[nH]2)c(O)cc1O [Compound 278, 4-Benzimidazol-2-yl-6-ethylbenzene-1,3-diol]
35 | ≤ 50 µM |  | CCc1cc(-c2nc3ccccc3n2-c2ccccc2)c(O)cc1O [Compound 279, 6-Ethyl-4-(1-phenylbenzimidazol-2-yl)benzene-1,3-diol]
36 | ≤ 50 µM |  | CCc1c(O)cc(O)c(-c2ncc(-c3ccccc3)o2)c1CC(=O)OC [Compound 329, Methyl 2-ethyl-3,5-dihydroxy-6-(5-phenyl-1,3-oxazol-2-yl)phenylacetate]
37 | ≤ 50 µM |  | CCc1c(O)cc(O)c(-c2n[nH]c3cc(OC)ccc23)c1CCOCC(O)CO (stereo not shown) [Compound 330, 5-[2-(2,3-Dihydroxypropoxy)ethyl]-6-ethyl-4-(6-methoxy-1H-indazol-3-yl)benzene-1,3-diol]
